Data on three compounds can be found in the kinase profiling compilation of Christmann-Franck et al. (2016).

MAPKAPK3 (human), sequence (Q16644 whole entry, looked up): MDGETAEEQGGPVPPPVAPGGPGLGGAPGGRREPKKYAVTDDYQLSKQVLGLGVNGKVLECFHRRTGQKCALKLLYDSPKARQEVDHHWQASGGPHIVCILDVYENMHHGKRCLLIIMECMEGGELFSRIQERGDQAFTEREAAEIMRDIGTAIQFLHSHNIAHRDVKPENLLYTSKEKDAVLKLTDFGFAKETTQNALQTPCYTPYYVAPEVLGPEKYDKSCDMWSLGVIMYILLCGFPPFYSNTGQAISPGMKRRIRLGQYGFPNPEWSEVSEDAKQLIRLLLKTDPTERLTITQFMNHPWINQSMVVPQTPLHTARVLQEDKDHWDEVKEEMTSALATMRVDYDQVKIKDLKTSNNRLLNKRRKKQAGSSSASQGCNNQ
ULK3 (human), sequence (Q6PHR2 whole entry, looked up): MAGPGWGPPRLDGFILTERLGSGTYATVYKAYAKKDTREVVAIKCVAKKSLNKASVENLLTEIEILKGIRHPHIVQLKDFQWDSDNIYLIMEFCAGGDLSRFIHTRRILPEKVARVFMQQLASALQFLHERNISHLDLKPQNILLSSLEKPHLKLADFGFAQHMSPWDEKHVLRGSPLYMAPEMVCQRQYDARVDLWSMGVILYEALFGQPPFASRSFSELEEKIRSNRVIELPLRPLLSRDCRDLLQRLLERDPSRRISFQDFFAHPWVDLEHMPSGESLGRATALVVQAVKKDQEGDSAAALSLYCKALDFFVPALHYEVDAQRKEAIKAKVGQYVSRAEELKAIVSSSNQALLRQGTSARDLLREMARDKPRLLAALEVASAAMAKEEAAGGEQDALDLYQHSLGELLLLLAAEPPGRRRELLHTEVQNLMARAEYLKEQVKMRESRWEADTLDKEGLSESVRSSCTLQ

The target of the first assay is AURKA (human) (UniProt O14965). The experiment in a line: radiometric filter-binding kinase assay, Kinase HotSpot. To be noted: compound 0.5 µM; ATP 10 µM.
As for `CCOC(=O)c1c(C)[nH]c(/C=C2\C(=O)Nc3ccccc32)c1C`, the residual activity amounted to 90.4%.
The same measure, in the same setting: the value for `Cc1[nH]c(/C=C2\C(=O)Nc3ccc(S(=O)(=O)N(C)c4cccc(Cl)c4)cc32)c(C)c1C(=O)N1CCN(C)CC1` was 27.6%; that for `Nc1ncnc2[nH]nc(Nc3ccc(F)cc3)c12` was 92.3%.

A further assay deals with STK39 (human) (UniProt Q9UEW8). The assay is described as above. The conditions noted are these: compound 0.5 µM; ATP 10 µM.
For the compound `CCOC(=O)c1c(C)[nH]c(/C=C2\C(=O)Nc3ccccc32)c1C`, the residual activity is 85.1%.
On the same count and under the same terms, the value for `Cc1[nH]c(/C=C2\C(=O)Nc3ccc(S(=O)(=O)N(C)c4cccc(Cl)c4)cc32)c(C)c1C(=O)N1CCN(C)CC1` was 84.7%; that for `Nc1ncnc2[nH]nc(Nc3ccc(F)cc3)c12` was 88.5%.

The target in a further assay is EPHA5 (human) (UniProt P54756). The description is as above. To be noted: compound 0.5 µM; ATP 10 µM.
Consider `CCOC(=O)c1c(C)[nH]c(/C=C2\C(=O)Nc3ccccc32)c1C`, for which the residual activity came to 91.9%.
Same read-out and setting: the value for `Cc1[nH]c(/C=C2\C(=O)Nc3ccc(S(=O)(=O)N(C)c4cccc(Cl)c4)cc32)c(C)c1C(=O)N1CCN(C)CC1` was 96.4%; that for `Nc1ncnc2[nH]nc(Nc3ccc(F)cc3)c12` was 87%.

The next assay concerns the target STK25 (human) (UniProt O00506). Described as above. To be noted: compound 0.5 µM; ATP 10 µM.
Take `CCOC(=O)c1c(C)[nH]c(/C=C2\C(=O)Nc3ccccc32)c1C`: the residual activity came to 98.5%.
Same read-out and setting: the value for `Cc1[nH]c(/C=C2\C(=O)Nc3ccc(S(=O)(=O)N(C)c4cccc(Cl)c4)cc32)c(C)c1C(=O)N1CCN(C)CC1` was 91%.
Still for that read-out and setting: the value for `Nc1ncnc2[nH]nc(Nc3ccc(F)cc3)c12` was 112%.

The target in another assay is GSK3B (human) (UniProt P49841). Described as above. The conditions noted are these: compound 0.5 µM; ATP 10 µM.
Take `CCOC(=O)c1c(C)[nH]c(/C=C2\C(=O)Nc3ccccc32)c1C`: the residual activity worked out at 105%.
Same read-out and setting: the value for `Cc1[nH]c(/C=C2\C(=O)Nc3ccc(S(=O)(=O)N(C)c4cccc(Cl)c4)cc32)c(C)c1C(=O)N1CCN(C)CC1` was 96.1%.
On the same count and under the same terms, the value for `Nc1ncnc2[nH]nc(Nc3ccc(F)cc3)c12` was 101%.

The target of a further assay is GSK3A (human) (UniProt P49840). Described as above. To be noted: compound 0.5 µM; ATP 10 µM.
For the compound `CCOC(=O)c1c(C)[nH]c(/C=C2\C(=O)Nc3ccccc32)c1C`, the residual activity stood at 93.5%.
Same read-out and setting: the value for `Cc1[nH]c(/C=C2\C(=O)Nc3ccc(S(=O)(=O)N(C)c4cccc(Cl)c4)cc32)c(C)c1C(=O)N1CCN(C)CC1` was 98.4%; that for `Nc1ncnc2[nH]nc(Nc3ccc(F)cc3)c12` was 88.6%.

For another assay, the target named is EGFR (human) (UniProt P00533). The assay is described as above. To be noted: compound 0.5 µM; ATP 10 µM.
Regarding `CCOC(=O)c1c(C)[nH]c(/C=C2\C(=O)Nc3ccccc32)c1C`, the residual activity is 92.2%.
On the same count and under the same terms, the value for `Cc1[nH]c(/C=C2\C(=O)Nc3ccc(S(=O)(=O)N(C)c4cccc(Cl)c4)cc32)c(C)c1C(=O)N1CCN(C)CC1` was 97.1%.
Same read-out and setting: the value for `Nc1ncnc2[nH]nc(Nc3ccc(F)cc3)c12` was 100%.

The next assay deals with FLT3 (human) (UniProt P36888). Described as above. The conditions noted are these: compound 0.5 µM; ATP 10 µM.
FLT3 (human), sequence (P36888 whole entry, looked up): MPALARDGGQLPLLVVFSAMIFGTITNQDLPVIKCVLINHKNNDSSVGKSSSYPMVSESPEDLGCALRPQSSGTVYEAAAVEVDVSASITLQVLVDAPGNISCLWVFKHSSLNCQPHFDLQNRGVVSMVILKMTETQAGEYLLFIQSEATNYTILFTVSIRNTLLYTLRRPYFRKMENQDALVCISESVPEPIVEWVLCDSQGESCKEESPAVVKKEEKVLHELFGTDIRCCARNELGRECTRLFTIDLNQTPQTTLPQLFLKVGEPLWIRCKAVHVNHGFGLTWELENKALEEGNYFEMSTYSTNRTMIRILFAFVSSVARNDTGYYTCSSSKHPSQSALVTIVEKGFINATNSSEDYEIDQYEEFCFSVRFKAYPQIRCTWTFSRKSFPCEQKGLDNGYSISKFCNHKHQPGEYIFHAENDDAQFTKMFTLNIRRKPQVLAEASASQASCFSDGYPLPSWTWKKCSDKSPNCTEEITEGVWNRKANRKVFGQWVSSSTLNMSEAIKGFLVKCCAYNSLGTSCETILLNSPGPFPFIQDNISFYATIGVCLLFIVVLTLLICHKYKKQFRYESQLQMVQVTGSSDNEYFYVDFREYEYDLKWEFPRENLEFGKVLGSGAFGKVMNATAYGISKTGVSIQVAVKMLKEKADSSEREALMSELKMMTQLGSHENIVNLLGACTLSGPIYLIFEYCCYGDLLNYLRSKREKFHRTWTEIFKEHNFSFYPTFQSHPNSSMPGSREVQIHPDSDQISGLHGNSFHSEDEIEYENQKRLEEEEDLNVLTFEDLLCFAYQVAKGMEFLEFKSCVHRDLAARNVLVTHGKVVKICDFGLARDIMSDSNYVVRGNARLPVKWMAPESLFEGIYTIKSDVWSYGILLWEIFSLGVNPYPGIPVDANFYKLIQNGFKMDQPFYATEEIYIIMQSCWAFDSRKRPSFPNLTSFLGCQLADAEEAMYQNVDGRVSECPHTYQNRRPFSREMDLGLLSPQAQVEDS
As to `CCOC(=O)c1c(C)[nH]c(/C=C2\C(=O)Nc3ccccc32)c1C`, the residual activity amounted to 13.3%.
Same read-out and setting: the value for `Cc1[nH]c(/C=C2\C(=O)Nc3ccc(S(=O)(=O)N(C)c4cccc(Cl)c4)cc32)c(C)c1C(=O)N1CCN(C)CC1` was 26.5%; that for `Nc1ncnc2[nH]nc(Nc3ccc(F)cc3)c12` was 78.3%.

The next assay has as its target CAMK1G (human) (UniProt Q96NX5). Described as above. The conditions noted are these: compound 0.5 µM; ATP 10 µM.
Take `CCOC(=O)c1c(C)[nH]c(/C=C2\C(=O)Nc3ccccc32)c1C`: the residual activity was determined as 98.2%.
Take `Cc1[nH]c(/C=C2\C(=O)Nc3ccc(S(=O)(=O)N(C)c4cccc(Cl)c4)cc32)c(C)c1C(=O)N1CCN(C)CC1`: the residual activity was found to be 92.5%.
Still for that read-out and setting: the value for `Nc1ncnc2[nH]nc(Nc3ccc(F)cc3)c12` was 97.2%.

The target of another assay is ADRBK1 (human) (UniProt P25098). Described as above. To be noted: compound 0.5 µM; ATP 10 µM.
ADRBK1 (human), sequence (P25098 whole entry, looked up): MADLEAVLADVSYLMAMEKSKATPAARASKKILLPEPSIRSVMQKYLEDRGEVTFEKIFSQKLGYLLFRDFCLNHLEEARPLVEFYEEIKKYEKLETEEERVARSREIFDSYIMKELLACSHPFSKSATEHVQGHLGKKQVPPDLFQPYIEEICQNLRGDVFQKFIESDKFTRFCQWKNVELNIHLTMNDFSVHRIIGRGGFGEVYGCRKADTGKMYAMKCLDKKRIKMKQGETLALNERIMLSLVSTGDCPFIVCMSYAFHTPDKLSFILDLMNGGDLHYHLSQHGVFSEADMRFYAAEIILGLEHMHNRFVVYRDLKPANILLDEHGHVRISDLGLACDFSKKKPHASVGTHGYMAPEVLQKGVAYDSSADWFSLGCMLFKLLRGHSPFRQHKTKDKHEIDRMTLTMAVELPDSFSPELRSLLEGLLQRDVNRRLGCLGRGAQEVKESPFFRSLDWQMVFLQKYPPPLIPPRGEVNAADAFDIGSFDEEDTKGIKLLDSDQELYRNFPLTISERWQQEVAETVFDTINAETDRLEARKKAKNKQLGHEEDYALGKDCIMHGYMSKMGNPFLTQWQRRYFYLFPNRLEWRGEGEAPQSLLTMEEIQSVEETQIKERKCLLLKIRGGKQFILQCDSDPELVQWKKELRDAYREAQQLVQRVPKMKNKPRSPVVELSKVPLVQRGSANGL
For the compound `CCOC(=O)c1c(C)[nH]c(/C=C2\C(=O)Nc3ccccc32)c1C`, the residual activity was determined as 98.2%.
The same measure, in the same setting: the value for `Cc1[nH]c(/C=C2\C(=O)Nc3ccc(S(=O)(=O)N(C)c4cccc(Cl)c4)cc32)c(C)c1C(=O)N1CCN(C)CC1` was 105%.
Same read-out and setting: the value for `Nc1ncnc2[nH]nc(Nc3ccc(F)cc3)c12` was 98.6%.

The next assay deals with CDK5 CDK5R1 p25 (human) (UniProt Q00535+Q15078). The description is as above. To be noted: compound 0.5 µM; ATP 10 µM.
Regarding `CCOC(=O)c1c(C)[nH]c(/C=C2\C(=O)Nc3ccccc32)c1C`, the residual activity came to 92.7%.
On to `Cc1[nH]c(/C=C2\C(=O)Nc3ccc(S(=O)(=O)N(C)c4cccc(Cl)c4)cc32)c(C)c1C(=O)N1CCN(C)CC1`, for which the residual activity stood at 82%.
Consider `Nc1ncnc2[nH]nc(Nc3ccc(F)cc3)c12`, for which the residual activity worked out at 82.5%.

The next assay addresses HIPK3 (human) (UniProt Q9H422). Described as above. To be noted: compound 0.5 µM; ATP 10 µM.
For the compound `CCOC(=O)c1c(C)[nH]c(/C=C2\C(=O)Nc3ccccc32)c1C`, the residual activity came out at 94.5%.
Same read-out and setting: the value for `Cc1[nH]c(/C=C2\C(=O)Nc3ccc(S(=O)(=O)N(C)c4cccc(Cl)c4)cc32)c(C)c1C(=O)N1CCN(C)CC1` was 103%; that for `Nc1ncnc2[nH]nc(Nc3ccc(F)cc3)c12` was 101%.

The next assay has as its target MAPKAPK3 (human) (UniProt Q16644). Described as above. To be noted: compound 0.5 µM; ATP 10 µM.
Turning to `CCOC(=O)c1c(C)[nH]c(/C=C2\C(=O)Nc3ccccc32)c1C`, the residual activity amounted to 91.7%.
Still for that read-out and setting: the value for `Cc1[nH]c(/C=C2\C(=O)Nc3ccc(S(=O)(=O)N(C)c4cccc(Cl)c4)cc32)c(C)c1C(=O)N1CCN(C)CC1` was 96.9%; that for `Nc1ncnc2[nH]nc(Nc3ccc(F)cc3)c12` was 94%.

The next assay has as its target ULK3 (human) (UniProt Q6PHR2). The assay is described as above. To be noted: compound 0.5 µM; ATP 10 µM.
Take `CCOC(=O)c1c(C)[nH]c(/C=C2\C(=O)Nc3ccccc32)c1C`: the residual activity stood at 76.7%.
Same read-out and setting: the value for `Cc1[nH]c(/C=C2\C(=O)Nc3ccc(S(=O)(=O)N(C)c4cccc(Cl)c4)cc32)c(C)c1C(=O)N1CCN(C)CC1` was 55.3%; that for `Nc1ncnc2[nH]nc(Nc3ccc(F)cc3)c12` was 92.8%.

For another assay, the target named is NEK9 (human) (UniProt Q8TD19). The assay is described as above. To be noted: compound 0.5 µM; ATP 10 µM.
NEK9 (human), sequence (Q8TD19 whole entry, looked up): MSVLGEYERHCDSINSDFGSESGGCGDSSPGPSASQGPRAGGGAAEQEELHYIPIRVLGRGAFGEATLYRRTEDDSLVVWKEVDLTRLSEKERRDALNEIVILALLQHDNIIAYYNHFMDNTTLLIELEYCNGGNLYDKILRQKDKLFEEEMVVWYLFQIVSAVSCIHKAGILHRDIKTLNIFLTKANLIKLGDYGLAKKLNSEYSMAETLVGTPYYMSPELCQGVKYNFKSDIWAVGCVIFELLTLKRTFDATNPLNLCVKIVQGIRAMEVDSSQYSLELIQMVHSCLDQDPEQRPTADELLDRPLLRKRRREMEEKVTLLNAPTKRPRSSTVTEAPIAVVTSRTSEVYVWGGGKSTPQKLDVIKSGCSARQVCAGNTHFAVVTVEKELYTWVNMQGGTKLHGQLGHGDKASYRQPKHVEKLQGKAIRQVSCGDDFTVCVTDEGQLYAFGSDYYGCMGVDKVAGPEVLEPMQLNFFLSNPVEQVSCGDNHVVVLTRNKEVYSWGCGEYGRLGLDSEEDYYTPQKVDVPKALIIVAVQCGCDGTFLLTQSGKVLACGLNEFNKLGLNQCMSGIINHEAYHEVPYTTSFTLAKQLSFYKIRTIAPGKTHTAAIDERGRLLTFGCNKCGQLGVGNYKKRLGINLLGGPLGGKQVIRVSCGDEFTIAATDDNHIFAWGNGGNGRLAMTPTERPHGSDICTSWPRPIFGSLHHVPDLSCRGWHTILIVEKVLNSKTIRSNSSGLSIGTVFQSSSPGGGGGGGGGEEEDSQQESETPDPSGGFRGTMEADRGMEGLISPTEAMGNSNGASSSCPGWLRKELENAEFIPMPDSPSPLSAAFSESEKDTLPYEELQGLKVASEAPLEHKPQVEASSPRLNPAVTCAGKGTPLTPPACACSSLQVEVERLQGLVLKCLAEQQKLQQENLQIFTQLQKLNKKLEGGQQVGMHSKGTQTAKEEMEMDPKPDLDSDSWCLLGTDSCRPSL
As to `CCOC(=O)c1c(C)[nH]c(/C=C2\C(=O)Nc3ccccc32)c1C`, the residual activity was determined as 80.8%.
For the compound `Cc1[nH]c(/C=C2\C(=O)Nc3ccc(S(=O)(=O)N(C)c4cccc(Cl)c4)cc32)c(C)c1C(=O)N1CCN(C)CC1`, the residual activity was 92.5%.
The same measure, in the same setting: the value for `Nc1ncnc2[nH]nc(Nc3ccc(F)cc3)c12` was 97.9%.

The target of another assay is MARK1 (human) (UniProt Q9P0L2). Described as above. The conditions noted are these: compound 0.5 µM; ATP 10 µM.
On to `CCOC(=O)c1c(C)[nH]c(/C=C2\C(=O)Nc3ccccc32)c1C`, for which the residual activity stood at 90.8%.
The same measure, in the same setting: the value for `Cc1[nH]c(/C=C2\C(=O)Nc3ccc(S(=O)(=O)N(C)c4cccc(Cl)c4)cc32)c(C)c1C(=O)N1CCN(C)CC1` was 62.5%; that for `Nc1ncnc2[nH]nc(Nc3ccc(F)cc3)c12` was 93.8%.

In another assay the target is MAP3K7 TAB1 (human) (UniProt O43318+Q15750). The description is as above. To be noted: compound 0.5 µM; ATP 10 µM.
Regarding `CCOC(=O)c1c(C)[nH]c(/C=C2\C(=O)Nc3ccccc32)c1C`, the residual activity turned out to be 85.8%.
On the same count and under the same terms, the value for `Cc1[nH]c(/C=C2\C(=O)Nc3ccc(S(=O)(=O)N(C)c4cccc(Cl)c4)cc32)c(C)c1C(=O)N1CCN(C)CC1` was 79.8%; that for `Nc1ncnc2[nH]nc(Nc3ccc(F)cc3)c12` was 100%.

The next assay deals with YES1 (human) (UniProt P07947). The assay is described as above. To be noted: compound 0.5 µM; ATP 10 µM.
YES1 (human), sequence (P07947 whole entry, looked up): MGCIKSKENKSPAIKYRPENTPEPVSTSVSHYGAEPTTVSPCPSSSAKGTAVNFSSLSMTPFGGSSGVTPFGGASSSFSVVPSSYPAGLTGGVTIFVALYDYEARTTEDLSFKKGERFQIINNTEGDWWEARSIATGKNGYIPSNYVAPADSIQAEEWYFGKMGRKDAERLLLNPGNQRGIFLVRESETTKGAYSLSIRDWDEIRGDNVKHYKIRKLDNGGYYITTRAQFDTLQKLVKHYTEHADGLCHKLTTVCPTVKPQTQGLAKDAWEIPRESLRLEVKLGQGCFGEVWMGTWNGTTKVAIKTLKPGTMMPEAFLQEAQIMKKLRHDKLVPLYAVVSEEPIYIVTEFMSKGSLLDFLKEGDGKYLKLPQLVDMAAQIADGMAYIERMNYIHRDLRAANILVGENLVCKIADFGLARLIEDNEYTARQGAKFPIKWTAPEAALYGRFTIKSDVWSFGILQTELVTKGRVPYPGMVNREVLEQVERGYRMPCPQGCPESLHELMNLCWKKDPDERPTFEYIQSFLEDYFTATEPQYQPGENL
Consider `CCOC(=O)c1c(C)[nH]c(/C=C2\C(=O)Nc3ccccc32)c1C`, for which the residual activity is 68.3%.
The same measure, in the same setting: the value for `Cc1[nH]c(/C=C2\C(=O)Nc3ccc(S(=O)(=O)N(C)c4cccc(Cl)c4)cc32)c(C)c1C(=O)N1CCN(C)CC1` was 27%; that for `Nc1ncnc2[nH]nc(Nc3ccc(F)cc3)c12` was 92.9%.

In another assay the target is EPHA3 (human) (UniProt P29320). The description is as above. The conditions noted are these: compound 0.5 µM; ATP 10 µM.
EPHA3 (human), sequence (P29320 whole entry, looked up): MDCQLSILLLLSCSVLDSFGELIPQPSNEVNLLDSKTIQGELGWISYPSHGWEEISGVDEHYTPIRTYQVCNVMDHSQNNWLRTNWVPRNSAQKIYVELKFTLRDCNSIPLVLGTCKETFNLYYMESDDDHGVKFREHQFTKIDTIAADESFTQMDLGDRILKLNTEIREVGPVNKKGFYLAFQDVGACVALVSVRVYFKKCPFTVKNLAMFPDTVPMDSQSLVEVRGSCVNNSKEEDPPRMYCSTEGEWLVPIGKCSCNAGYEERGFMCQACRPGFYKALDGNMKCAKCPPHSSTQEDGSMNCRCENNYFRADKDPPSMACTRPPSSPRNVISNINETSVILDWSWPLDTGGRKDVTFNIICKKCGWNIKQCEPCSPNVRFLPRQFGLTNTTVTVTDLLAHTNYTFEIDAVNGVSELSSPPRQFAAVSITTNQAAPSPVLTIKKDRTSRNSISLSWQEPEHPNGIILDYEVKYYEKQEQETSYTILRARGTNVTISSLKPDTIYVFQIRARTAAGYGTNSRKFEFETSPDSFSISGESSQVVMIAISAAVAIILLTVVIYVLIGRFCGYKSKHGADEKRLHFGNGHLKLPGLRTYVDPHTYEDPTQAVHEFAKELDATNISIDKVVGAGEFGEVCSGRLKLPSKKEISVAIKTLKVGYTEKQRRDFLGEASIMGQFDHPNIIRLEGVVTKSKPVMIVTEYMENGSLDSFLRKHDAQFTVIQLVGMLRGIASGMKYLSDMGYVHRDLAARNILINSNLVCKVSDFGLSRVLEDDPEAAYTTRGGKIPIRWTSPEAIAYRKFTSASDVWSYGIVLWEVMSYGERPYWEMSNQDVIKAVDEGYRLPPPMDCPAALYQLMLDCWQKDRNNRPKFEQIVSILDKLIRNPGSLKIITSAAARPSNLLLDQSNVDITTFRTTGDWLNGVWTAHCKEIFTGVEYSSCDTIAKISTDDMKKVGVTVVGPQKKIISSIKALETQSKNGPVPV
Take `CCOC(=O)c1c(C)[nH]c(/C=C2\C(=O)Nc3ccccc32)c1C`: the residual activity worked out at 96.3%.
The same measure, in the same setting: the value for `Cc1[nH]c(/C=C2\C(=O)Nc3ccc(S(=O)(=O)N(C)c4cccc(Cl)c4)cc32)c(C)c1C(=O)N1CCN(C)CC1` was 103%; that for `Nc1ncnc2[nH]nc(Nc3ccc(F)cc3)c12` was 107%.

The target of a further assay is RPS6KA4 KD2 (human) (UniProt O75676). The assay is described as above. The conditions noted are these: compound 0.5 µM; ATP 10 µM.
Consider `CCOC(=O)c1c(C)[nH]c(/C=C2\C(=O)Nc3ccccc32)c1C`, for which the residual activity was found to be 87%.
With `Cc1[nH]c(/C=C2\C(=O)Nc3ccc(S(=O)(=O)N(C)c4cccc(Cl)c4)cc32)c(C)c1C(=O)N1CCN(C)CC1`, the residual activity worked out at 109%.
On the same count and under the same terms, the value for `Nc1ncnc2[nH]nc(Nc3ccc(F)cc3)c12` was 114%.

Another assay concerns the target SIK2 (human) (UniProt Q9H0K1). Described as above. The conditions noted are these: compound 0.5 µM; ATP 10 µM.
On to `CCOC(=O)c1c(C)[nH]c(/C=C2\C(=O)Nc3ccccc32)c1C`, for which the residual activity was 99.9%.
The same measure, in the same setting: the value for `Cc1[nH]c(/C=C2\C(=O)Nc3ccc(S(=O)(=O)N(C)c4cccc(Cl)c4)cc32)c(C)c1C(=O)N1CCN(C)CC1` was 86%; that for `Nc1ncnc2[nH]nc(Nc3ccc(F)cc3)c12` was 78.7%.

The term residual activity denotes the signal under treatment as a percentage of the control signal.
